Experimental data published in patent publication US8329699B2, “Pyrrolopyrazine kinase inhibitors” (Hoffmann-La Roche Inc., priority 2010, dated 2012).
Where a name gives a salt, the structure may show the parent alone.

Legend:
[1] = target: T1, JAK3: Recombinant human kinase domain (h-jak3-sf21-c) (Homo sapiens, UniProt P52333); test: Determination of IC50 of Janus Kinase (JAK) inhibition, JAK3 (radioactive end-point assay with 33P-ATP); assay type: biochemical; settings: ATP 1.5 uM, peptide 50 uM, 20 minutes, room temperature
T1 construct: JAK3: Recombinant human kinase domain from Millipore (Cat # 14-629) or prepared; purchased Millipore 14-629
From the text: Determination of IC50 of Janus Kinase (JAK) Inhibition:
Enzymes and peptide substrate used are described below: • JAK1: Recombinant human kinase domain from Invitrogen (Cat # PV4774) • JAK3: Recombinant human kinase domain from Millipore (Cat # 14-629) or prepared. • JAK2: Recombinant human kinase domain from Millipore (Cat # 14-640) • Substrate: N-terminally biotinylated 14-mer peptide derived from activation loop of JAK1 with sequence of the peptide substrate: Biotin-[…]
Assay conditions used are described below: • Assay Buffer: JAK Kinase Buffer: 50 mM Hepes [pH 7.2], 10 mM MgCl2, 1 mM DTT, 1 mg/mL BSA. The assay is carried out in this buffer. • Assay Format The kinase activity of all three JAK kinases is measured using a radioactive, end-point assay and with trace amounts of^33P-ATP. The assays are carried out in 96-well polypropylene plates. Experimental Method:
All concentrations are final in the reaction mixture and all incubations are carried at room temperature. Assay steps are described below: • 1) Compounds are serially diluted in 100% DMSO typically at a 10× starting concentration of 1 mM. Final concentration of DMSO in the reaction is 10%. • 2) Compounds are preincubated with enzyme (0.5 nM JAK3 (commercially available), 0.2 nM JAK3 (prepared), 1 nM JAK2, 5 nM JAK1) for 10 minutes. • 3) Reactions are initiated by the addition of a cocktail of the two substrates (ATP and peptide premixed in the JAK Kinase Buffer). In the JAK2/JAK3 assays, ATP and the peptide are used at concentrations of 1.5 uM and 50 uM, respectively. JAK1 assay is carried out at an ATP concentration of 10 uM and a peptide concentration of 50 uM. • 4) The duration of the assay for JAK2 and JAK3 is 20 minutes. JAK1 assay is carried out for 40 minutes. With all three enzymes, reactions are terminated by the addition of 0.5M EDTA to a final concentration of 100 mM. • 5) 25 ul of terminated reactions are transferred to 150 ul of a 7.5% (v/v) slurry of streptavidin-coated sepharose beads in MgCl2- and CaCl2-free 1× Phosphate Buffered Saline containing 50 mM of EDTA in 96-well, 1.2 um MultiScreen-BV filter plates. • 6) After a 30-minute incubation, the beads are washed under vacuum with the following buffers: • a. 3 to 4 washes with 200 ul of 2M NaCl. • b. 3 to 4 washes with 200 ul of 2M NaCl plus 1% (v/v) phosphoric acid. • c. 1 wash with water. • 7) Washed plates are dried in a 60° C. oven for between 1 to 2 hours. • 8) 70 ul of Microscint 20 scintillation fluid is added to each well of filter plates and after at least 30 minutes of incubation, radioactive counts are measured in a Perkinelmer microplate scintillation counter.

T1 sequence (P52333 822-1111 limits assumed): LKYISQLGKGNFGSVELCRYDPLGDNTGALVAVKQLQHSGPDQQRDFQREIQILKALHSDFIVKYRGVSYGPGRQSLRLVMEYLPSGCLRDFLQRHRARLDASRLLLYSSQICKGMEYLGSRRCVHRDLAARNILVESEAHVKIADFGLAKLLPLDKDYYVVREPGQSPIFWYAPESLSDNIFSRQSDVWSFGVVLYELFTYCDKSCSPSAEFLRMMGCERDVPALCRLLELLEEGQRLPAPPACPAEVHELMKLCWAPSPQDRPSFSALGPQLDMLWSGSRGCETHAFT

| Compound | melting point [°C] | IC50 [1] [nM] |
| --- | --- | --- |
| CC(C)(O)C1(NC(=O)c2c[nH]c3ncc(C4CC4)nc23)CCNC1 (centres unmarked) (as salt: hydrochloride) [Compound I-17, 2-Cyclopropyl-5H-pyrrolo[2,3-b]pyrazine-7-carboxylic acid [3-(1-hydroxy-1-methyl-ethyl)-pyrrolidin-3-yl]-amide] | 200 to 203 | – |
| O=C(NC1(CO)CCOCC1)c1c[nH]c2ncc(C3CC3)nc12 [Compound I-2, 2-Cyclopropyl-5H-pyrrolo[2,3-b]pyrazine-7-carboxylic acid (4-hydroxymethyl-tetrahydro-pyran-4-yl)-amide] | 294 to 296 | 674 |
| O=C(NC1CCCOC1)c1c[nH]c2ncc(C3CC3)nc12 (centres unmarked) [Compound I-6, 2-Cyclopropyl-5H-pyrrolo[2,3-b]pyrazine-7-carboxylic acid (tetrahydro-pyran-3-yl)-amide] | > 300 | 15.6 |
| O=C(Nc1cccc(C(F)(F)F)c1)c1c[nH]c2ncc(C3CC3)nc12 [Compound I-8, 2-Cyclopropyl-5H-pyrrolo[2,3-b]pyrazine-7-carboxylic acid (3-trifluoromethyl-phenyl)-amide] | 271.1 to 272.9 | 963 |
| Cc1ccc(C#N)cc1NC(=O)c1c[nH]c2ncc(C3CC3)nc12 [Compound I-9, 2-Cyclopropyl-5H-pyrrolo[2,3-b]pyrazine-7-carboxylic acid (5-cyano-2-methyl-phenyl)-amide] | 280 to 284 | 157 |
| CC(C)(O)C1(NC(=O)c2c[nH]c3ncc(C4CC4)nc23)CCCC1 [Compound I-12, 2-Cyclopropyl-5H-pyrrolo[2,3-b]pyrazine-7-carboxylic acid [1-(1-hydroxy-1-methyl-ethyl)-cyclopentyl]-amide] | 232 to 234 | 49.7 |
| CC(C)(O)C1(NC(=O)c2c[nH]c3ncc(C4CC4)nc23)CCC1 [Compound I-13, 2-Cyclopropyl-5H-pyrrolo[2,3-b]pyrazine-7-carboxylic acid [1-(1-hydroxy-1-methyl-ethyl)-cyclobutyl]-amide] | 264 to 266 | 42.7 |
| CC(C)(O)C1(NC(=O)c2c[nH]c3ncc(C4CC4)nc23)CCNC1 (centres unmarked) [Compound I-17, 2-Cyclopropyl-5H-pyrrolo[2,3-b]pyrazine-7-carboxylic acid [3-(1-hydroxy-1-methyl-ethyl)-pyrrolidin-3-yl]-amide] | – | 10000 |
| CC(C)(O)C1(NC(=O)c2c[nH]c3ncc(C4CC4)nc23)CCOC1 (centres unmarked) [Compound I-18, 2-Cyclopropyl-5H-pyrrolo[2,3-b]pyrazine-7-carboxylic acid [3-(1-hydroxy-1-methyl-ethyl)-tetrahydro-furan-3-yl]-amide] | 213 to 215 | 342 |
| CS(=O)(=O)N1CCC(NC(=O)c2c[nH]c3ncc(C4CC4)nc23)C1 (centres unmarked) [Compound I-20, 2-Cyclopropyl-5H-pyrrolo[2,3-b]pyrazine-7-carboxylic acid (1-methanesulfonyl-pyrrolidin-3-yl)-amide] | > 300 | 35.4 |
| CS(=O)(=O)N1CCC(NC(=O)c2c[nH]c3ncc(C4CC4)nc23)CC1 [Compound I-21, 2-Cyclopropyl-5H-pyrrolo[2,3-b]pyrazine-7-carboxylic acid (1-methanesulfonyl-piperidin-4-yl)-amide] | 278 to 280 | 96.2 |
| CC1(C)CCN(S(C)(=O)=O)CC1NC(=O)c1c[nH]c2ncc(C3CC3)nc12 (centres unmarked) [Compound I-35, 2-Cyclopropyl-5H-pyrrolo[2,3-b]pyrazine-7-carboxylic acid (1-methanesulfonyl-4,4-dimethyl-piperidin-3-yl)-amide] | – | 2.1 |
| CC(=O)N[C@@H]1CCc2ccc(Oc3cnc4[nH]cc(C(=O)NC5CCCCC5)c4n3)cc21 [Compound I-40, 2-((R)-3-Acetylamino-indan-5-yloxy)-5H-pyrrolo[2,3-b]pyrazine-7-carboxylic acid cyclohexylamide] | – | 50.2 |
| CC(=O)N[C@@H]1CCc2ccc(Oc3cnc4[nH]cc(C(=O)NC5CCS(=O)(=O)CC5)c4n3)cc21 [Compound I-41, 2-((R)-3-Acetylamino-indan-5-yloxy)-5H-pyrrolo[2,3-b]pyrazine-7-carboxylic acid (1,1-dioxo-hexahydro-1λ6-thiopyran-4-yl)-amide] | – | 2160 |

More lines, in order of falling IC50 [1], values ahead:

| melting point [°C] | IC50 [1] [nM] | Compound |
| --- | --- | --- |
| 296 to 299 | 1040 | O=C(NC1(C(=O)C2CC2)CCCC1)c1c[nH]c2ncc(C3CC3)nc12 [Compound I-19, 2-Cyclopropyl-5H-pyrrolo[2,3-b]pyrazine-7-carboxylic acid (1-cyclopropanecarbonyl-cyclopentyl)-amide] |
| 272 to 274 | 735 | N#Cc1cccc(NC(=O)c2c[nH]c3ncc(C4CC4)nc23)c1 [Compound I-5, 2-Cyclopropyl-5H-pyrrolo[2,3-b]pyrazine-7-carboxylic acid (3-cyano-phenyl)-amide] |
| > 300 | 524 | N#CC1(NC(=O)c2c[nH]c3ncc(C4CC4)nc23)CC1 [Compound I-10, 2-Cyclopropyl-5H-pyrrolo[2,3-b]pyrazine-7-carboxylic acid (1-cyano-cyclopropyl)-amide] |
| – | 423 | O=C(N[C@H]1CCOC[C@@H]1O)c1c[nH]c2ncc(C3CC3)nc12 [Compound I-15, 2-Cyclopropyl-5H-pyrrolo[2,3-b]pyrazine-7-carboxylic acid ((3R,4S)-3-hydroxy-tetrahydro-pyran-4-yl)-amide] |
| 272 to 274 | 44.2 | O=C(NC1(CO)CCCC1)c1c[nH]c2ncc(C3CC3)nc12 [Compound I-3, 2-Cyclopropyl-5H-pyrrolo[2,3-b]pyrazine-7-carboxylic acid (1-hydroxymethyl-cyclopentyl)-amide] |
| > 300 | 42 | O=C(NC1CCOCC1)c1c[nH]c2ncc(C3CC3)nc12 [Compound I-1, 2-Cyclopropyl-5H-pyrrolo[2,3-b]pyrazine-7-carboxylic acid (tetrahydro-pyran-4-yl)-amide] |
| 228 to 230 | 38.9 | CC(C)(O)C1(NC(=O)c2c[nH]c3ncc(C4CC4)nc23)CCCCC1 [Compound I-14, 2-Cyclopropyl-5H-pyrrolo[2,3-b]pyrazine-7-carboxylic acid [1-(1-hydroxy-1-methyl-ethyl)-cyclohexyl]-amide] |
| 260 to 262 | 12.9 | C[C@]1(O)CCC[C@@H]1NC(=O)c1c[nH]c2ncc(C3CC3)nc12 (relative stereo) [Compound I-11, 2-Cyclopropyl-5H-pyrrolo[2,3-b]pyrazine-7-carboxylic acid ((trans)-2-hydroxy-2-methyl-cyclopentyl)-amide] |
| > 300 | 10 | N#C[C@@H]1CCC[C@@H]1NC(=O)c1c[nH]c2ncc(C3CC3)nc12 (relative stereo) [Compound I-25, 2-Cyclopropyl-5H-pyrrolo[2,3-b]pyrazine-7-carboxylic acid ((cis)-2-cyano-cyclopentyl)-amide] |
| > 300 | 9.8 | CC1(C)COCC1NC(=O)c1c[nH]c2ncc(C3CC3)nc12 (centres unmarked) [Compound I-16, 2-Cyclopropyl-5H-pyrrolo[2,3-b]pyrazine-7-carboxylic acid (4,4-dimethyl-tetrahydro-furan-3-yl)-amide] |
| > 300 | 5.3 | CC1(C)OCCC1NC(=O)c1c[nH]c2ncc(C3CC3)nc12 (centres unmarked) [Compound I-4, 2-Cyclopropyl-5H-pyrrolo[2,3-b]pyrazine-7-carboxylic acid (2,2-dimethyl-tetrahydro-furan-3-yl)-amide] |
| > 300 | 1.1 | CC1(C)CCCC1NC(=O)c1c[nH]c2ncc(C3CC3)nc12 (centres unmarked) [Compound I-7, 2-Cyclopropyl-5H-pyrrolo[2,3-b]pyrazine-7-carboxylic acid (2,2-dimethyl-cyclopentyl)-amide] |
| – | 0.3 | CCn1cc(-c2cnc3[nH]cc(C(=O)NC4CCCCC4(C)C)c3n2)cn1 (centres unmarked) [Compound I-39, 2-(1-Ethyl-1H-pyrazol-4-yl)-5H-pyrrolo[2,3-b]pyrazine-7-carboxylic acid (2,2-dimethyl-cyclohexyl)-amide] |
